The values that follow come from ChEMBL document CHEMBL1128761, “Benzothiazolylthio carbapenems: potent anti-MRSA agents” (Bioorg Med Chem Lett, 1995).

Usually MIC stands for the least concentration at which growth counts as inhibited. As usually defined, the IC50 is the concentration needed to halve the response being measured. The low end stands for inhibition by little substance, the high end for a need for much substance.

The species entered for one experiment is Sus scrofa. The experiment in a line: (§1) Susceptibility to DHP-I (swine kidney enzyme). The format is tissue-based.
In experiment [1] the test system is Enterococcus. The experiment in a line: Inhibitory activity against enterococcus evaluated by computational method. The format is functional.
The test system of experiment [2] is Enterococcus. The experiment in a line: Inhibitory activity against enterococcus evaluated manually. It counts as functional.
Experiment [3] has as its system Bacteria. The experiment in a line: Inhibitory activity against gram negative bacteria evaluated manually. The format is functional.
Experiment [4] deals with Bacteria. The experiment in a line: The gram-negative activity is derived from eleven strains selected from seven enteric genera. It counts as functional.
Experiment [5] relates to Staphylococcus. The experiment in a line: Inhibitory activity against methicillin-resistant coagulase negative staphylococci (MRCNS) evaluated by computational method. It counts as functional.
The subject of experiment [6] is Staphylococcus. The experiment in a line: (§2) Inhibitory activity against methicillin-resistant coagulase negative staphylococci (MRCNS) evaluated manually. It counts as functional.
For experiment [7], the system named is Staphylococcus aureus. The experiment in a line: Inhibitory activity against methicillin-sensitive staphylococcus aureus(MSSA) evaluated by computational method. It counts as functional.
The test system of experiment [8] is Staphylococcus aureus. The experiment in a line: Inhibitory activity against methicillin-sensitive staphylococcus aureus(MSSA) evaluated manually. The format is functional.
Experiment [9] has as its system Staphylococcus aureus. The experiment in a line: Inhibitory activity against methicillin-resistant staphylococcus aureus(MRSA) evaluated manually. It counts as functional.
Experiment [10] relates to Staphylococcus aureus. The experiment in a line: Inhibitory activity against methicillin-resistant staphylococcus aureus(MRSA) evaluated by computational method. The format is functional.
In experiment [11] the target is T1, Dipeptidase 1 (Sus scrofa) (UniProt P22412).
T1 sequence (whole entry): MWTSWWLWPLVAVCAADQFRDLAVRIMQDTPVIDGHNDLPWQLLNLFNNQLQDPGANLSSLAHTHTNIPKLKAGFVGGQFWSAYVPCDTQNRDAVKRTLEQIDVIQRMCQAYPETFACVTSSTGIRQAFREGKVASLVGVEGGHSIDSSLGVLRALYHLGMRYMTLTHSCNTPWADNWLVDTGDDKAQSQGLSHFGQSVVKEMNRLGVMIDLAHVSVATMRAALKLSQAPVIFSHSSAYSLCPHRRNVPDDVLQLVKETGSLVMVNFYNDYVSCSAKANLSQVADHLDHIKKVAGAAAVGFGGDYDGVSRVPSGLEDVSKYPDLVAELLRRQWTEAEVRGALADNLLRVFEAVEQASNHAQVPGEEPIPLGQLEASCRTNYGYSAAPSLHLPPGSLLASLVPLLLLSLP
The description is as §1. The format is tissue-based.

For the next experiment, the target named is T2, MecA (Staphylococcus aureus, UniProt Q7DHH4).
T2 sequence (Q7DHH4 whole entry): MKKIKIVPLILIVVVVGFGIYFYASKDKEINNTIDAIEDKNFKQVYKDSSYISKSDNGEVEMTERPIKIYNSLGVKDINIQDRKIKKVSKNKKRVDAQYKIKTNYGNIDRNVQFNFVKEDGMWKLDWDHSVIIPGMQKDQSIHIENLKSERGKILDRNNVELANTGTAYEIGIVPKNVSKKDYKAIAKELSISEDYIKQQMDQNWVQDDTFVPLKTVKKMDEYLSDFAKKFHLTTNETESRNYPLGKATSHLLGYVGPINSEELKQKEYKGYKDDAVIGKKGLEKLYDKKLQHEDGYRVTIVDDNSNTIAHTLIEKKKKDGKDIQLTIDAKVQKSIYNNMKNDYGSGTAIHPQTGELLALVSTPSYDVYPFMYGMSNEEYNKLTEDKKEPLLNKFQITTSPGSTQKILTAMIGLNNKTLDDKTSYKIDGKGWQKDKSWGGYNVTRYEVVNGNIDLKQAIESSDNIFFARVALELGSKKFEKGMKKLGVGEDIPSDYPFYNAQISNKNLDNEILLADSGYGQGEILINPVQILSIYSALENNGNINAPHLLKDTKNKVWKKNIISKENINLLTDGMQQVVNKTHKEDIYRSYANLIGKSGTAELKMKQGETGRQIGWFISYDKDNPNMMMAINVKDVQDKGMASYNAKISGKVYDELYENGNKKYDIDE
The experiment in a line: Binding affinity towards Penicillin-binding protein 2a from homogeneous MRSA COL strain using [3H]-radioligand.

Experiment [12] concerns Staphylococcus. The experiment in a line: Inhibitory activity against methicillin-resistant coagulase negative staphylococci (MRCNS)evaluated by computational method. It counts as functional.
Experiment [13] has as its system Staphylococcus. The experiment in a line: Inhibitory activity against methicillin-resistant coagulase negative staphylococci (MRCNS)evaluated manually. The format is functional.
In experiment [14] the test system is Staphylococcus aureus. The experiment in a line: Inhibitory activity against methicillin-resistant staphylococcus aureus(MRSA)evaluated manually. The format is functional.
For experiment [15], the system named is Staphylococcus aureus. The experiment in a line: Inhibitory activity against methicillin-resistant staphylococcus aureus(MRSA)evaluated by computational method. It counts as functional.
For the next experiment, the system named is Staphylococcus sp. Described as §2. The format is functional.

Values after ≈ are worked out from the molar mass of the structure shown.

`C[C@@H](O)[C@H]1C(=O)N2C(C(=O)O)=C(SCCNC=N)C[C@H]12` [IMIPENEM ANHYDROUS] yielded a Susceptibility in the experiment filed under Sus scrofa of 1. The MIC is 1.1 µg/mL (≈ 3.67 µM) against Enterococcus [1]; 1.3 µg/mL (≈ 4.34 µM) in the experiment with Enterococcus [2]; 0.4 µg/mL (≈ 1.34 µM) against Bacteria [3]; 0.6 µg/mL (≈ 2 µM) in the experiment on Bacteria [4] (Bacteria, read-out: MIC); 63.7 µg/mL (≈ 213 µM) against Staphylococcus [5]; > 64 µg/mL against Staphylococcus [6]. In addition, the MIC was determined as 0.02 µg/mL (≈ 0.0668 µM) against Staphylococcus aureus [7], 0.02 µg/mL (≈ 0.0668 µM) in the experiment on Staphylococcus aureus [8], 64 µg/mL (≈ 214 µM) with Staphylococcus aureus [9] and 35.9 µg/mL (≈ 120 µM) with Staphylococcus aureus [10].
With `C[C@@H](O)[C@H]1C(=O)N2C(C(=O)[O-])=C(Sc3nc4ccccc4s3)[C@H](C)[C@H]12.[Na+]`, the Susceptibility in experiment [11] stood at 0.2. Further, the MIC is 2.1 µg/mL in the experiment on Enterococcus [1]; 4 µg/mL with Enterococcus [2]; 9.7 µg/mL in the experiment on Bacteria [4]; 5.6 µg/mL with Bacteria [4] (Bacteria, read-out: MIC); 1.6 µg/mL against Staphylococcus [12]; 4 µg/mL with Staphylococcus [13]. In addition, the MIC against Staphylococcus aureus [14] is 1 µg/mL; against Staphylococcus aureus [7], 0.06 µg/mL; in the experiment with Staphylococcus aureus [8] it was 0.02 µg/mL; with Staphylococcus aureus [15], 1.7 µg/mL. The compound also gave an IC50 on MecA of 5020 nM.
On to `C[C@@H](O)[C@H]1C(=O)N2C(C(=O)[O-])=C(Sc3nc4cc(C[n+]5ccn(C)c5)ccc4s3)C[C@H]12`, for which, in the experiment filed under Sus scrofa, the Susceptibility came to 0.2. The MIC stood at 1.2 µg/mL (≈ 2.63 µM) against Enterococcus [1]; 1 µg/mL (≈ 2.19 µM) against Enterococcus [2]; 5.2 µg/mL (≈ 11.4 µM) against Bacteria [3]; 3.4 µg/mL (≈ 7.45 µM) in the experiment on Bacteria [4] (Bacteria, read-out: MIC); 0.8 µg/mL (≈ 1.75 µM) in the experiment with Staphylococcus [5]; 4 µg/mL (≈ 8.76 µM) in the experiment on Staphylococcus sp.. Also, the MIC against Staphylococcus aureus [7] came out at 0.03 µg/mL (≈ 0.0657 µM); in the experiment on Staphylococcus aureus [8] it was 0.02 µg/mL (≈ 0.0438 µM); in the experiment with Staphylococcus aureus [9], 2 µg/mL (≈ 4.38 µM); against Staphylococcus aureus [10] it was 1 µg/mL (≈ 2.19 µM). This compound also had an IC50 on MecA of 876 nM.
